According to the supplement of paper PMC10307832:

Legend:
Assay in all cases: relative viability (nuclei count vs DMSO), 5 days (fraction); higher = more cells survive
[1] = system: 201T
How it was run: (§1)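 Lung cancer cell lines in 1536-well plates were dosed by pin tool the day after seeding, either with one drug alone or with a fixed anchor-drug dose plus five library-drug doses (not always all listed) in √10 steps. After 5 days, cells were fixed and their nuclei stained in one step (final 0.05% Triton X-100, 1% formaldehyde, 1 ug/ml Hoechst), then counted on 4× images. Relative viability is the nuclei count in treated wells divided by that in vehicle wells. Values are medians of duplicate plates.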

[2] = system: EMC-BAC-2
How it was run: as §1

[3] = system: EPLC-272H
How it was run: as §1

[4] = system: HCC-78
How it was run: as §1

[5] = system: LOU-NH91
How it was run: as §1

[6] = system: NCI-H1395
How it was run: as §1

[7] = system: NCI-H1437
How it was run: as §1

[8] = system: NCI-H1651
How it was run: as §1

[9] = system: NCI-H1734
How it was run: as §1

[10] = system: NCI-H1792
How it was run: as §1

[11] = system: NCI-H1793
How it was run: as §1

[12] = system: NCI-H1915
How it was run: as §1

[13] = system: NCI-H1975
How it was run: as §1

[14] = system: NCI-H2023
How it was run: as §1

[15] = system: NCI-H23
How it was run: as §1

[16] = system: NCI-H2405
How it was run: as §1

[17] = system: NCI-H647
How it was run: as §1

[18] = system: RERF-LC-KJ
How it was run: as §1

[19] = system: SK-LU-1
How it was run: as §1

[20] = system: UMC-11
How it was run: as §1

O=C(O)CCCCC(CCSCc1ccccc1)SCc1ccccc1 (stereo not drawn) [CPI-613] + CC1(C)CCC(c2ccc(Cl)cc2)=C(CN2CCN(c3ccc(C(=O)NS(=O)(=O)c4ccc(N[C@H](CCN5CCOCC5)CSc5ccccc5)c(S(=O)(=O)C(F)(F)F)c4)cc3)CC2)C1 [Navitoclax] (partner 0.5 µM)
relative viability ([1]; first compound 5 µM): 1.23
relative viability ([1]; first compound 15.81 µM): 1.2
relative viability ([1]; first compound 50 µM): 1.17
relative viability ([1]; first compound 158.11 µM): 1.14
relative viability ([1]; first compound 500 µM): 1.09
relative viability ([2]; first compound 5 µM): 1.15
relative viability ([2]; first compound 15.81 µM): 1.13
relative viability ([2]; first compound 50 µM): 1.15
relative viability ([2]; first compound 158.11 µM): 1.01
relative viability ([2]; first compound 500 µM): 1.06
relative viability ([3]; first compound 5 µM): 1.24
relative viability ([3]; first compound 15.81 µM): 0.897
relative viability ([3]; first compound 50 µM): 1.11
relative viability ([3]; first compound 158.11 µM): 0.86
relative viability ([3]; first compound 500 µM): 0.765
relative viability ([4]; first compound 5 µM): 0.731
relative viability ([4]; first compound 15.81 µM): 0.749
relative viability ([4]; first compound 158.11 µM): 0.783
relative viability ([4]; first compound 500 µM): 0.876
relative viability ([5]; first compound 5 µM): 0.683
relative viability ([5]; first compound 15.81 µM): 0.653
relative viability ([5]; first compound 50 µM): 0.664
relative viability ([5]; first compound 158.11 µM): 0.682
relative viability ([5]; first compound 500 µM): 0.579
relative viability ([6]; first compound 5 µM): 1.48
relative viability ([6]; first compound 15.81 µM): 1.03
relative viability ([6]; first compound 50 µM): 1.08
relative viability ([6]; first compound 158.11 µM): 1.16
relative viability ([6]; first compound 500 µM): 0.961
relative viability ([7]; first compound 5 µM): 1.03
relative viability ([7]; first compound 15.81 µM): 0.957
relative viability ([7]; first compound 50 µM): 1.03
relative viability ([7]; first compound 158.11 µM): 0.199
relative viability ([7]; first compound 500 µM): 0.0367
relative viability ([8]; first compound 5 µM): 1.04
relative viability ([8]; first compound 15.81 µM): 0.866
relative viability ([8]; first compound 50 µM): 1
relative viability ([8]; first compound 158.11 µM): 0.17
relative viability ([8]; first compound 500 µM): 0.152
relative viability ([9]; first compound 5 µM): 0.776
relative viability ([9]; first compound 15.81 µM): 0.677
relative viability ([9]; first compound 50 µM): 0.75
relative viability ([9]; first compound 158.11 µM): 0.545
relative viability ([9]; first compound 500 µM): 0.117
relative viability ([10]; first compound 5 µM): 0.518
relative viability ([10]; first compound 15.81 µM): 0.595
relative viability ([10]; first compound 50 µM): 0.603
relative viability ([10]; first compound 158.11 µM): 0.411
relative viability ([10]; first compound 500 µM): 0.601
relative viability ([11]; first compound 5 µM): 0.393
relative viability ([11]; first compound 50 µM): 0.346
relative viability ([11]; first compound 158.11 µM): 0.363
relative viability ([11]; first compound 500 µM): 0.1
relative viability ([12]; first compound 5 µM): 0.781
relative viability ([12]; first compound 15.81 µM): 0.778
relative viability ([12]; first compound 50 µM): 0.724
relative viability ([12]; first compound 158.11 µM): 0.552
relative viability ([12]; first compound 500 µM): 0.55
relative viability ([13]; first compound 5 µM): 0.988
relative viability ([13]; first compound 15.81 µM): 1.1
relative viability ([13]; first compound 50 µM): 1.08
relative viability ([13]; first compound 158.11 µM): 0.816
relative viability ([13]; first compound 500 µM): 0.0403
relative viability ([14]; first compound 5 µM): 1.01
relative viability ([14]; first compound 15.81 µM): 0.997
relative viability ([14]; first compound 50 µM): 0.951
relative viability ([14]; first compound 158.11 µM): 0.103
relative viability ([14]; first compound 500 µM): 0.0259
relative viability ([15]; first compound 5 µM): 0.858
relative viability ([15]; first compound 15.81 µM): 0.711
relative viability ([15]; first compound 50 µM): 0.801
relative viability ([15]; first compound 158.11 µM): 0.564
relative viability ([15]; first compound 500 µM): 0.027
relative viability ([16]; first compound 5 µM): 0.929
relative viability ([16]; first compound 15.81 µM): 0.796
relative viability ([16]; first compound 50 µM): 0.765
relative viability ([16]; first compound 158.11 µM): 0.795
relative viability ([16]; first compound 500 µM): 0.67
relative viability ([17]; first compound 5 µM): 1.05
relative viability ([17]; first compound 15.81 µM): 1.11
relative viability ([17]; first compound 50 µM): 0.963
relative viability ([17]; first compound 158.11 µM): 0.875
relative viability ([17]; first compound 500 µM): 0.238
relative viability ([18]; first compound 5 µM): 1.01
relative viability ([18]; first compound 15.81 µM): 0.747
relative viability ([18]; first compound 50 µM): 1.27
relative viability ([18]; first compound 158.11 µM): 0.964
relative viability ([18]; first compound 500 µM): 0.756
relative viability ([19]; first compound 5 µM): 0.78
relative viability ([19]; first compound 15.81 µM): 0.586
relative viability ([19]; first compound 50 µM): 0.857
relative viability ([19]; first compound 158.11 µM): 0.195
relative viability ([19]; first compound 500 µM): 0.156
relative viability ([20]; first compound 5 µM): 0.28
relative viability ([20]; first compound 15.81 µM): 0.324
relative viability ([20]; first compound 50 µM): 0.278
relative viability ([20]; first compound 158.11 µM): 0.143
relative viability ([20]; first compound 500 µM): 0.0935
